Results as given in PMC7265341, “Quantifying CDK inhibitor selectivity in live cells” (Nature Communications, 2020).
Like-named read-outs stand apart in the source and are kept apart here.

How the values were obtained:
CDK15/Cyclin Y = CDK15/Cyclin Y (Homo sapiens, UniProt Q96Q40); assay: NanoBRET live-cell target engagement, NanoLuc-CDK15/Cyclin Y in HEK-293; type: binding; conditions: CDK15/Y, 10µM
CDK18/Cyclin Y = CDK18/Cyclin Y (Homo sapiens, UniProt Q07002); assay: NanoBRET live-cell target engagement, CDK18-NanoLuc/Cyclin Y in HEK-293; type: binding; conditions: CDK18/Y
Chain of CDK18/Cyclin Y (Q07002 whole entry): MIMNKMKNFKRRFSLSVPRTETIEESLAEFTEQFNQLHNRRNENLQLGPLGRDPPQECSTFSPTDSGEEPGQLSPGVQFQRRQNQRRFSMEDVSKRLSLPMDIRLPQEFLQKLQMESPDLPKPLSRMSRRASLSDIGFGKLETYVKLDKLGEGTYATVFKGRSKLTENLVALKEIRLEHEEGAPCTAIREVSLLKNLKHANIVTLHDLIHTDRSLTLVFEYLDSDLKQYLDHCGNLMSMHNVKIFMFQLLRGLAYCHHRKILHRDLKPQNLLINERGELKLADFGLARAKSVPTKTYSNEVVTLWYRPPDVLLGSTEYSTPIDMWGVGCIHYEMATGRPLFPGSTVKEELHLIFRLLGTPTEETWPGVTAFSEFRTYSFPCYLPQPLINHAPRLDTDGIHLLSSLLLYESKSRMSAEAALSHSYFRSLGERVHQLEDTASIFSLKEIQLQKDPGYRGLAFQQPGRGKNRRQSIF
Chain of CDK18/Cyclin Y (Q8ND76 whole entry partner): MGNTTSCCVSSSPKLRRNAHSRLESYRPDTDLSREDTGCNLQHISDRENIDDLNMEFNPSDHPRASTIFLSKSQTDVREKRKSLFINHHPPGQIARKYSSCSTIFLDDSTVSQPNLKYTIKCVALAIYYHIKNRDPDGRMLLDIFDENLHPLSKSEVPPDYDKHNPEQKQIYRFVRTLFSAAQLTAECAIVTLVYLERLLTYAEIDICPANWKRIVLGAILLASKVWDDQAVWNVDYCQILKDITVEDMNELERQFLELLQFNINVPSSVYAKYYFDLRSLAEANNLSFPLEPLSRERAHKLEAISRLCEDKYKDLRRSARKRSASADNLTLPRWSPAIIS

CDK19/Cyclin C = CDK19/Cyclin C (Homo sapiens, UniProt Q9BWU1); assay: NanoBRET live-cell target engagement, NanoLuc-CDK19/Cyclin C in HEK-293
CDK17/Cyclin Y = CDK17/Cyclin Y (Homo sapiens, UniProt Q00537); assay: NanoBRET live-cell target engagement, CDK17-NanoLuc/Cyclin Y in HEK-293; type: binding; conditions: CDK17/Y, 10µM
CDK16/Cyclin Y = CDK16/Cyclin Y (Homo sapiens, UniProt Q00536); assay: NanoBRET live-cell target engagement, CDK16-NanoLuc/Cyclin Y in HEK-293; type: binding; conditions: CDK16/Y, 10µM
CDK11A/Cyclin L2 = target: T1, CDK11A/Cyclin L2 (Homo sapiens, UniProt Q9UQ88); assay: NanoBRET live-cell target engagement, CDK11A-NanoLuc/Cyclin L2 in HEK-293; type: binding; conditions: CDK11a/L2, 10µM
T1 sequence (Q9UQ88 1-783): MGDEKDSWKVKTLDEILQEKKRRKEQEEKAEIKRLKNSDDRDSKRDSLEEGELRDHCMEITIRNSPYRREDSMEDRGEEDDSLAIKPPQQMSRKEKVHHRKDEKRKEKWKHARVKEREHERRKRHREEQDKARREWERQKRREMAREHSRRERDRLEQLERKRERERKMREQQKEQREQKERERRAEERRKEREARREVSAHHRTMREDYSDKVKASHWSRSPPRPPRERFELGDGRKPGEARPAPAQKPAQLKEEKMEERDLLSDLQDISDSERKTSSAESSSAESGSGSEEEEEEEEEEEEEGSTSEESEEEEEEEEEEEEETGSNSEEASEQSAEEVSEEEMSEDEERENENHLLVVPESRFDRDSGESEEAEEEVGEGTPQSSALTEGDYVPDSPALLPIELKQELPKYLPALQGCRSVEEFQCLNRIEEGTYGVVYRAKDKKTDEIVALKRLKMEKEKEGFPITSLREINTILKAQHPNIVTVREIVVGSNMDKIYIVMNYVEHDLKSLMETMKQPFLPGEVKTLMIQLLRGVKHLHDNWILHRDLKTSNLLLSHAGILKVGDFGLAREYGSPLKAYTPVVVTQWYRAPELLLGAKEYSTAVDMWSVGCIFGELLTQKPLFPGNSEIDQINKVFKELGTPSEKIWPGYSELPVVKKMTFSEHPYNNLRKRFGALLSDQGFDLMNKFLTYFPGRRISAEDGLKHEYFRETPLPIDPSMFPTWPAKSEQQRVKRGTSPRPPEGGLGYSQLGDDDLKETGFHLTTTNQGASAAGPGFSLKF

CDK8/Cyclin C = CDK8/Cyclin C (Homo sapiens, UniProt P49336); assay: NanoBRET live-cell target engagement, NanoLuc-CDK8/Cyclin C in HEK-293; type: binding; conditions: CDK8/C
CDK6/Cyclin D1 = CDK6/Cyclin D1 (Homo sapiens, UniProt Q00534); assay: NanoBRET live-cell target engagement, NanoLuc-CDK6/Cyclin D1 in HEK-293; type: binding; conditions: CDK6/D1, 10µM
CDK20/Cyclin H = CDK20/Cyclin H (Homo sapiens, UniProt Q8IZL9); assay: NanoBRET live-cell target engagement, NanoLuc-CDK20/Cyclin H in HEK-293; type: binding; conditions: CDK20/H, 10µM
CDK10/Cyclin L2 = CDK10/Cyclin L2 (Homo sapiens, UniProt Q15131); assay: NanoBRET live-cell target engagement, CDK10-NanoLuc/Cyclin L2 in HEK-293; conditions: 10µM
Chain of CDK10/Cyclin L2 (Q15131 whole entry): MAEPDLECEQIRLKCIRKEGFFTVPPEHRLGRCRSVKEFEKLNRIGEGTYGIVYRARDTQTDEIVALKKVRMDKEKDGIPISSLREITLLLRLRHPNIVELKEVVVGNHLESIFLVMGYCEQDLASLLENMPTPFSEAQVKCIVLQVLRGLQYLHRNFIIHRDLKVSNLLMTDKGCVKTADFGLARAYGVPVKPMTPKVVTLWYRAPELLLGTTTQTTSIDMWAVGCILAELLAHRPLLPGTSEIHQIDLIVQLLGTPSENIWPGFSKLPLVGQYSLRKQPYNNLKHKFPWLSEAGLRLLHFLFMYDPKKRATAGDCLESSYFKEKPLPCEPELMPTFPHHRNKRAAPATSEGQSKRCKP

CDK12/Cyclin K = CDK12/Cyclin K (Homo sapiens, UniProt Q9NYV4); assay: NanoBRET live-cell target engagement, CDK12-NanoLuc/Cyclin K in HEK-293; type: binding; conditions: CDK12/K, 10µM
CDK4/Cyclin D1 = CDK4/Cyclin D1 (Homo sapiens, UniProt P11802); assay: NanoBRET live-cell target engagement, NanoLuc-CDK4/Cyclin D1 in HEK-293; type: binding; conditions: CDK4/D1, 10µM
Chain of CDK4/Cyclin D1 (P11802 whole entry): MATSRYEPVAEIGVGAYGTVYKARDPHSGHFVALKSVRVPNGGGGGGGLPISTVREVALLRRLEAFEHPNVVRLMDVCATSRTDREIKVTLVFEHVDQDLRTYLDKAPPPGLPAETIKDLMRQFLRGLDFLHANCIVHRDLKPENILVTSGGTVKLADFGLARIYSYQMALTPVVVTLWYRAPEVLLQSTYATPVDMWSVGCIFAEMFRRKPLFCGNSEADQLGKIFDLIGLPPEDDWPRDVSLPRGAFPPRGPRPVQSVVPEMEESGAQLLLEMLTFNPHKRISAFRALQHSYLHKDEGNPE
Chain of CDK4/Cyclin D1 (P24385 whole entry partner): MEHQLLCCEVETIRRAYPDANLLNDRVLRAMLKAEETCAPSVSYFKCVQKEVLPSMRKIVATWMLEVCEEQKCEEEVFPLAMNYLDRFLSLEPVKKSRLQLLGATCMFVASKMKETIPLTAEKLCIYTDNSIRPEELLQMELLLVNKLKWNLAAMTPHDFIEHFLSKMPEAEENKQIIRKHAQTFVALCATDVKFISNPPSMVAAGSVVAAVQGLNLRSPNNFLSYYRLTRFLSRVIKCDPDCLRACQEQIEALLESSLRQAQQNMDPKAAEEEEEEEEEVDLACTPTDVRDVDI

CDK5/CDK5R1 = CDK5/CDK5R1 (Homo sapiens, UniProt Q00535); assay: NanoBRET live-cell target engagement, CDK5-NanoLuc/CDK5R1 in HEK-293; type: binding; conditions: CDK5/CDK5R1, 10µM
CDK11B/Cyclin L2 = CDK11B/Cyclin L2 (Homo sapiens, UniProt P21127); assay: NanoBRET live-cell target engagement, CDK11B-NanoLuc/Cyclin L2 in HEK-293; type: binding; conditions: CDK11b/L2, 10µM
CDK1/Cyclin E1 = CDK1/Cyclin E1 (Homo sapiens, UniProt P06493); assay: NanoBRET live-cell target engagement, CDK1-NanoLuc/Cyclin E1 in HEK-293; type: binding; conditions: CDK1/E1, 10µM
Chain of CDK1/Cyclin E1 (P06493 whole entry): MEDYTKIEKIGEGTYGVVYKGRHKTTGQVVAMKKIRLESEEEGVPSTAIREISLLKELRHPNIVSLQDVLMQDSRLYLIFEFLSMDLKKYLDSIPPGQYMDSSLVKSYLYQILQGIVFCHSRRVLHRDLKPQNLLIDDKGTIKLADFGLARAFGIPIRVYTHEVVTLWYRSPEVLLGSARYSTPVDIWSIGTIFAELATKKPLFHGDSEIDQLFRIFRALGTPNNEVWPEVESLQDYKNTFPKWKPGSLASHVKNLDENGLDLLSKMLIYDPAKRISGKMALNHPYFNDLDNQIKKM
Chain of CDK1/Cyclin E1 (P24864 whole entry partner): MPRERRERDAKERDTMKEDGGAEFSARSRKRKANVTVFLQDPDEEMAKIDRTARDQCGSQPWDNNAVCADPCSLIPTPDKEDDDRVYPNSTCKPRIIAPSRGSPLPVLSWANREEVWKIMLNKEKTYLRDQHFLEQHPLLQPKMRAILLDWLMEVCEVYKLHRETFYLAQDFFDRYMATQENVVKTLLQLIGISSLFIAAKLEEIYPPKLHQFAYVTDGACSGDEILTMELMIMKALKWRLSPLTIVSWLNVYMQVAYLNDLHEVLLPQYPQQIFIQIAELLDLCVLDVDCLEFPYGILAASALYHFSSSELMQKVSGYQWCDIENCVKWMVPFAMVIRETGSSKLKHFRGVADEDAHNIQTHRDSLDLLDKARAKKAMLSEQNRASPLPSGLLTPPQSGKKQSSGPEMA

CDK13/Cyclin K = CDK13/Cyclin K (Homo sapiens, UniProt Q14004); assay: NanoBRET live-cell target engagement, CDK13-NanoLuc/Cyclin K in HEK-293; type: binding; conditions: CDK13/K, 10µM
Chain of CDK13/Cyclin K (O75909 whole entry): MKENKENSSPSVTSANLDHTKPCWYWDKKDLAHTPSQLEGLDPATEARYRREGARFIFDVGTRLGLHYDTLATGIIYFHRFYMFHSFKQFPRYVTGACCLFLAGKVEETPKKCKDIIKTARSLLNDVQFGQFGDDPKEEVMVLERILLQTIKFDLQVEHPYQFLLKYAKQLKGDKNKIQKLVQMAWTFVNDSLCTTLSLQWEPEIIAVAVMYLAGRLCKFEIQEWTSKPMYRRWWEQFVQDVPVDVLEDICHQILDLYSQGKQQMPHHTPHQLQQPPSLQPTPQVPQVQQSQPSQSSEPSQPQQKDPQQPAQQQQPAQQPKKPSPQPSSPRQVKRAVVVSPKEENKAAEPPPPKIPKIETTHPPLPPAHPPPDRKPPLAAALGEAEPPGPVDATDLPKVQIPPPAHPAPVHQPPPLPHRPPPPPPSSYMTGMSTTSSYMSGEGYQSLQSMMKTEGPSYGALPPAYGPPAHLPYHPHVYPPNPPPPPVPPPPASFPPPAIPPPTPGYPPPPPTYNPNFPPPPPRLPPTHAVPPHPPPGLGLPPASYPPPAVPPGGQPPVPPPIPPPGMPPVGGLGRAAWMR
Chain of CDK13/Cyclin K (Q14004 other isoform, or with tags, fused parts or gaps): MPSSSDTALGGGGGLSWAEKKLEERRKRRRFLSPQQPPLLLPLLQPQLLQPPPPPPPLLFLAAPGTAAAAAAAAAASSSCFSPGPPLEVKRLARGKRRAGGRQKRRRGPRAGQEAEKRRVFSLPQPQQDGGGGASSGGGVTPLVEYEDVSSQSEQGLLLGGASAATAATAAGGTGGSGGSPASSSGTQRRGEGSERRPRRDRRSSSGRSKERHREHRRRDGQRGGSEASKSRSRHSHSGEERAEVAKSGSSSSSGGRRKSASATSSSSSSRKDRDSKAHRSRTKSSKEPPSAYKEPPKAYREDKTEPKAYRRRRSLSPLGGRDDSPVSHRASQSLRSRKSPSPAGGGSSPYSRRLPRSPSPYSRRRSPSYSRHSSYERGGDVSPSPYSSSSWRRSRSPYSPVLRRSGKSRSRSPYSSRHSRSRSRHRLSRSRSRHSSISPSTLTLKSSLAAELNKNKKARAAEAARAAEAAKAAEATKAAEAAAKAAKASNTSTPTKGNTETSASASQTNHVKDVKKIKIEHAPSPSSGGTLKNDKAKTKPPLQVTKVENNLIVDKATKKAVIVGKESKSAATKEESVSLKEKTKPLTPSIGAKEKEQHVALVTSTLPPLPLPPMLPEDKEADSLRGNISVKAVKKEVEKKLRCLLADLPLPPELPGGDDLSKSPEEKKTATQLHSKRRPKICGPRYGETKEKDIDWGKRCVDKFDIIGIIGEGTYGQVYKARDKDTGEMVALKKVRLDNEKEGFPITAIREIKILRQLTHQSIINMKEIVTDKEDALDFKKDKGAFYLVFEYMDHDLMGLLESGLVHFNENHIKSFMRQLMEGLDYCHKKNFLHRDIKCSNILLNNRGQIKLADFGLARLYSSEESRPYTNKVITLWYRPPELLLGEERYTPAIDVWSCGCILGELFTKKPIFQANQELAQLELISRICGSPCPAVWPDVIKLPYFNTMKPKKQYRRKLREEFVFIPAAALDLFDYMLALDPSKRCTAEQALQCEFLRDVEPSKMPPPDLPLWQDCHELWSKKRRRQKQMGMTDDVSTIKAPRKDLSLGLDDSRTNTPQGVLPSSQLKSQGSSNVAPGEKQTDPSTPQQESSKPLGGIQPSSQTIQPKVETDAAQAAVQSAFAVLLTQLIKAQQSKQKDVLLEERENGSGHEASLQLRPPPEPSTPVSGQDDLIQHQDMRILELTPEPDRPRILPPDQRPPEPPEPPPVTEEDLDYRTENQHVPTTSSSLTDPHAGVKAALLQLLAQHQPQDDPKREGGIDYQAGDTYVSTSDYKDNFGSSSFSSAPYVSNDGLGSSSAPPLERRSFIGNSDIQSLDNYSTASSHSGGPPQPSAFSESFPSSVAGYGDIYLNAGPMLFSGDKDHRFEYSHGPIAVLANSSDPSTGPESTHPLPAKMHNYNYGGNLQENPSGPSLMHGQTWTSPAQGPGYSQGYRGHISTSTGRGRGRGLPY

[1] = average of replicates, read-out: Inhibition at 10µM (%) Average
[2] = read-out: Inhibition at 10µM (%) Replicate 1
[3] = read-out: Inhibition at 10µM (%) Replicate 2
[4] = n=3 average ± SEM, n=2 average to 2 significant figures, read-out: IC50 (nM) Average*
[5] = read-out: IC50 (nM) Replicate 1
[6] = read-out: IC50 (nM) Replicate 2

Chain of CDK15/Cyclin Y (Q96Q40 whole entry): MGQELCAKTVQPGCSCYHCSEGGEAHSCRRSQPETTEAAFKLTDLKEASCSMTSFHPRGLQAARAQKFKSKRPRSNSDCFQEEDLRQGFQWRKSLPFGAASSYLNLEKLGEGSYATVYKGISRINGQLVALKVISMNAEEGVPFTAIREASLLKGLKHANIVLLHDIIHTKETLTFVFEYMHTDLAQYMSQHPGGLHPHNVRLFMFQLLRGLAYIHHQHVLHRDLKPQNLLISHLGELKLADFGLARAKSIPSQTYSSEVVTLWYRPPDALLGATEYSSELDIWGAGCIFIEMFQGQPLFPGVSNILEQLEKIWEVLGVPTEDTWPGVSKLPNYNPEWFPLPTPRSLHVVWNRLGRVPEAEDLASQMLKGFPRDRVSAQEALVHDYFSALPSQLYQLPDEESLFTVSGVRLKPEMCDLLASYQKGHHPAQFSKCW
Chain of CDK15/Cyclin Y (Q8ND76 whole entry partner): as the sequence (Q8ND76 whole entry partner) above

Work on `Cc1ncc(-c2ccnc(Nc3ccc(S(C)(=O)=O)cc3)n2)n1C(C)C` [AZD5438] yielded an inhibition at 10 µM (CDK15/Cyclin Y; [1]) of 72.1%, an inhibition at 10 µM (CDK15/Cyclin Y; [2]) of 69.4% and an inhibition at 10 µM (CDK15/Cyclin Y; [3]) of 74.8%. The inhibition at 10 µM (CDK18/Cyclin Y; [1]) was 90%, the inhibition at 10 µM (CDK18/Cyclin Y; [2]) was 84.4% and the inhibition at 10 µM (CDK18/Cyclin Y; [3]) was 95.5%. For the same compound, the IC50 (CDK18/Cyclin Y; [4]) was 670 nM, the IC50 (CDK18/Cyclin Y; [5]) was 566 nM and the IC50 (CDK18/Cyclin Y; [6]) was 770 nM. The IC50 (CDK19/Cyclin C; IC50 (nM) Average*, CDK19/Y, n=3 average ± SEM, n=2 average to 2 significant figures) was 300 nM, the IC50 (CDK19/Cyclin C; IC50 (nM) Replicate 1, CDK19/C) was 470 nM and the IC50 (CDK19/Cyclin C; IC50 (nM) Replicate 2, CDK19/C) was 140 nM. For the same compound, the inhibition at 10 µM (CDK19/Cyclin C; read-out: Inhibition at 10µM (%) Average, CDK19/C, average of replicates) was 92.8%, the inhibition at 10 µM (CDK19/Cyclin C; read-out: Inhibition at 10µM (%) Replicate 1, CDK19/C) was 90.6% and the inhibition at 10 µM (CDK19/Cyclin C; read-out: Inhibition at 10µM (%) Replicate 2, CDK19/C) was 95.1%. It also gave an inhibition at 10 µM (CDK17/Cyclin Y; [1]) of 90.7%, an inhibition at 10 µM (CDK17/Cyclin Y; [2]) of 91.3% and an inhibition at 10 µM (CDK17/Cyclin Y; [3]) of 90.1%. For the same compound, the inhibition at 10 µM (CDK16/Cyclin Y; [2]) was 90%, the inhibition at 10 µM (CDK16/Cyclin Y; [3]) was 89.6% and the inhibition at 10 µM (CDK11A/Cyclin L2; [1]) was 68.9%. For the same compound, the inhibition at 10 µM (CDK11A/Cyclin L2; [2]) was 67.5%, the inhibition at 10 µM (CDK11A/Cyclin L2; [3]) was 70.3% and the inhibition at 10 µM (CDK8/Cyclin C; [1]) was 90.5%. The inhibition at 10 µM (CDK8/Cyclin C; [2]) was 94.1%, the IC50 (CDK8/Cyclin C; [4]) was 200 nM and the IC50 (CDK8/Cyclin C; [5]) was 330 nM. The IC50 (CDK8/Cyclin C; [6]) was 79 nM, the inhibition at 10 µM (CDK6/Cyclin D1; [1]) was 91.2% and the inhibition at 10 µM (CDK6/Cyclin D1; [2]) was 90.8%. It also gave an inhibition at 10 µM (CDK6/Cyclin D1; [3]) of 91.7%, an inhibition at 10 µM (CDK20/Cyclin H; [2]) of 22.8% and an inhibition at 10 µM (CDK20/Cyclin H; [3]) of 25.6%. For the same compound, the inhibition at 10 µM (CDK10/Cyclin L2; read-out: Inhibition at 10µM (%) Average, CDK10/L2, average of replicates) was 64.8%, the inhibition at 10 µM (CDK10/Cyclin L2; read-out: Inhibition at 10µM (%) Replicate 1, CDK10/L2) was 63.3% and the inhibition at 10 µM (CDK10/Cyclin L2; read-out: Inhibition at 10µM (%) Replicate 2, CDK10/L2) was 66.2%. The inhibition at 10 µM (CDK12/Cyclin K; [1]) was 17.1%, the inhibition at 10 µM (CDK12/Cyclin K; [2]) was 15.7% and the inhibition at 10 µM (CDK12/Cyclin K; [3]) was 18.5%. For the same compound, the inhibition at 10 µM (CDK4/Cyclin D1; [1]) was 89.9%, the inhibition at 10 µM (CDK4/Cyclin D1; [2]) was 88.9% and the inhibition at 10 µM (CDK4/Cyclin D1; [3]) was 90.9%. It also gave an inhibition at 10 µM (CDK5/CDK5R1; [1]) of 90.8%, an inhibition at 10 µM (CDK5/CDK5R1; [2]) of 87.9% and an inhibition at 10 µM (CDK5/CDK5R1; [3]) of 93.8%. It also gave an inhibition at 10 µM (CDK11B/Cyclin L2; [1]) of 70.1%, an inhibition at 10 µM (CDK11B/Cyclin L2; [2]) of 70.5% and an inhibition at 10 µM (CDK11B/Cyclin L2; [3]) of 69.7%. The inhibition at 10 µM (CDK1/Cyclin E1; [1]) was 78.5%, the inhibition at 10 µM (CDK1/Cyclin E1; [2]) was 78.7% and the inhibition at 10 µM (CDK1/Cyclin E1; [3]) was 78.3%. The inhibition at 10 µM (CDK13/Cyclin K; [1]) was 15.8%, the inhibition at 10 µM (CDK13/Cyclin K; [2]) was 21.6% and the inhibition at 10 µM (CDK13/Cyclin K; [3]) was 10.1%.
